Measurements from the supplement of paper PMC10307832.

Assays:
Assay in all cases: relative viability (nuclei count vs DMSO), 5 days (fraction); higher = more cells survive
[1] = compound: CC1=CC=C(C=C1)C(=O)CN2C3=C(CCCC3)SC2=N [Pifithrin_alpha] + CC(=O)c1c(C)c2cnc(Nc3ccc(N4CCNCC4)cn3)nc2n(C2CCCC2)c1=O [Palbociclib] (partner 0.5 µM)
Method in brief: (§1)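 For relative viability, nuclei counts in treated wells were divided by those in vehicle wells. Lung cancer cell lines had been pin-tool dosed in 1536-well plates the day after seeding and cultured for 5 days, then fixed and stained in one step (final 0.05% Triton X-100, 1% formaldehyde, 1 ug/ml Hoechst) and imaged at 4×. Doses were one drug alone or a fixed anchor-drug dose plus five library-drug doses (not always all listed) in √10 steps, and values are duplicate-plate medians.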

Axitinib + Phenformin = compound: CNC(=O)c1ccccc1Sc1ccc2c(/C=C/c3ccccn3)n[nH]c2c1 [Axitinib] + N=C(N)NC(=N)NCCc1ccccc1 [Phenformin] (partner 250 µM)
Method in brief: as §1

Axitinib + Olaparib = compound: CNC(=O)c1ccccc1Sc1ccc2c(/C=C/c3ccccn3)n[nH]c2c1 [Axitinib] + O=C(c1cc(Cc2n[nH]c(=O)c3ccccc23)ccc1F)N1CCN(C(=O)C2CC2)CC1 [Olaparib] (partner 8 µM)
Method in brief: as §1

Bemcentinib + Phenformin = compound: Nc1nc(Nc2ccc3c(c2)CC[C@@H](N2CCCC2)CC3)nn1-c1cc2c(nn1)-c1ccccc1CCC2 [Bemcentinib] + N=C(N)NC(=N)NCCc1ccccc1 [Phenformin] (partner 250 µM)
Method in brief: as §1

Cell Line	relative viability ([1]; first compound 1 µM)	relative viability ([1]; first compound 3.162 µM)	relative viability ([1]; first compound 10 µM)	relative viability ([1]; first compound 31.62 µM)	relative viability ([1]; first compound 100 µM)	relative viability (Axitinib + Phenformin; first compound 0.005 µM)	relative viability (Axitinib + Phenformin; first compound 0.01581 µM)	relative viability (Axitinib + Phenformin; first compound 0.05 µM)	relative viability (Axitinib + Phenformin; first compound 0.1581 µM)	relative viability (Axitinib + Phenformin; first compound 0.5 µM)	relative viability (Axitinib + Olaparib; first compound 0.005 µM)	relative viability (Axitinib + Olaparib; first compound 0.01581 µM)	relative viability (Axitinib + Olaparib; first compound 0.05 µM)	relative viability (Axitinib + Olaparib; first compound 0.1581 µM)	relative viability (Axitinib + Olaparib; first compound 0.5 µM)	relative viability (Bemcentinib + Phenformin; first compound 0.04 µM)	relative viability (Bemcentinib + Phenformin; first compound 0.1265 µM)	relative viability (Bemcentinib + Phenformin; first compound 0.4 µM)	relative viability (Bemcentinib + Phenformin; first compound 1.265 µM)	relative viability (Bemcentinib + Phenformin; first compound 4 µM)
BEN	0.487	0.488	0.456	0.444	0.472	0.268	0.29	0.246	0.236	0.262	1.17	1.42	0.903	1.02	1.07	0.242	0.289	0.269	0.255	0.295
LCLC-103H	0.525	0.518	0.472	0.464	0.456	0.32	0.341	0.345	0.356	0.312	0.803	0.784	0.753	0.881	0.824	0.366	0.255	0.332	0.289	0.35
NCI-H520	0.203	0.254	0.26	0.205	0.222	0.489	0.404	0.655	0.362	0.386	0.342	0.345	0.361	0.251	0.368	0.573	0.606	0.608	0.733	0.62
NCI-H1975	0.573	0.435	0.32	0.302	0.339	0.436	0.43	0.408	0.391	0.446	0.822	0.816	0.859	0.774	0.805	0.405	0.428	0.428	0.437	0.417
NCI-H1355	0.376	0.283	0.301	0.249	0.257	0.457	0.46	0.497	0.44	0.43	0.756	0.769	0.729	0.723	0.77	0.442	0.444	0.483	0.42	0.484
IA-LM	–	–	–	–	–	–	–	–	–	–	1.07	0.855	0.821	0.808	0.832	–	–	–	–	–
H3255	0.292	0.304	0.298	0.296	0.304	0.368	0.236	0.335	0.358	0.377	0.615	0.565	0.566	0.572	0.639	0.383	0.318	0.354	0.418	0.361
NCI-H1915	0.532	0.517	0.522	–	0.452	0.385	0.362	0.371	0.35	0.393	0.28	0.255	0.243	0.234	0.284	0.376	0.375	0.372	0.383	0.353
NCI-H2023	0.388	0.327	0.365	0.227	0.184	0.426	0.436	0.467	0.372	0.473	0.528	0.487	0.495	0.555	0.574	0.398	0.445	0.424	0.423	0.365
